Laboratory results published in ChEMBL document CHEMBL1201862, “PubChem BioAssay data set” (2004).
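Dose response: 5 concentrations. Exposure: 48 h. Format: 96-well plates. Endpoint: linear interpolation; highest concentration if not reached. Abbreviation: GI50, concentration required for 50% inhibition of growth.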 Calls of active or inactive are those of the source. No stated cut-off is given here; in the data, active = GI50 up to about 1.1 µM and inactive = higher.

Columns and labels:
Test in all cases: NCI tumour cell line growth inhibition, 48 h
[1] = tested on: 786-0
[2] = tested on: A549
[3] = tested on: ACHN
[4] = tested on: CAKI-1
[5] = tested on: CCRF-CEM
[6] = tested on: COLO 205
[7] = tested on: DLD-1
[8] = tested on: DMS-273
[9] = tested on: EKVX
[10] = tested on: HCC 2998
[11] = tested on: HCT-116
[12] = tested on: HCT-15
[13] = tested on: HL-60
[14] = tested on: HOP-18
[15] = tested on: HOP-62
[16] = tested on: HOP-92
[17] = tested on: HT-29
[18] = tested on: IGROV-1
[19] = tested on: K562
[20] = tested on: KM-20L2
[21] = tested on: KM12
[22] = tested on: LOX IMVI
[23] = tested on: LXFL 529
[24] = tested on: M19-MEL
[25] = tested on: MOLT-4
[26] = tested on: Malme-3M
[27] = tested on: NCI-H226
[28] = tested on: NCI-H23
[29] = tested on: NCI-H460
[30] = tested on: NCI-H522
[31] = tested on: OVCAR-3
[32] = tested on: OVCAR-5
[33] = tested on: OVCAR-8
[34] = tested on: RPMI-8226
[35] = tested on: RXF 393
[36] = tested on: RXF 631
[37] = tested on: SF-268
[38] = tested on: SF-295
[39] = tested on: SF-539
[40] = tested on: SK-MEL-28
[41] = tested on: SK-MEL-2
[42] = tested on: SK-MEL-5
[43] = tested on: SK-OV-3
[44] = tested on: SN12C
[45] = tested on: SNB-19
[46] = tested on: SR
[47] = tested on: SW-620
[48] = tested on: TK-10
[49] = tested on: U-251
[50] = tested on: UACC-257
[51] = tested on: UACC-62
[52] = tested on: A498
[53] = tested on: DMS-114
[54] = tested on: M14
[55] = tested on: OVCAR-4
[56] = tested on: SNB-75
[57] = tested on: SNB-78
[58] = tested on: UO-31
[59] = tested on: XF498

SMILES: N#CN1CCC=C(c2cc3ccccc3[nH]2)C1
- GI50 [1]: > 448 µM (inactive)
- GI50 [2]: 394 µM (inactive)
- GI50 [3]: 272 µM (inactive)
- GI50 [4]: 245 µM (inactive)
- GI50 [5]: 188 µM (inactive)
- GI50 [6]: 388 µM (inactive)
- GI50 [7]: 370 µM (inactive)
- GI50 [8]: 428 µM (inactive)
- GI50 [9]: 270 µM (inactive)
- GI50 [10]: 185 µM (inactive)
- GI50 [11]: 285 µM (inactive)
- GI50 [12]: 370 µM
- GI50 [13]: 164 µM (inactive)
- GI50 [14]: > 448 µM (inactive)
- GI50 [15]: > 448 µM (inactive)
- GI50 [16]: 146 µM (inactive)
- GI50 [17]: > 448 µM (inactive)
- GI50 [18]: 277 µM (inactive)
- GI50 [19]: 421 µM (inactive)
- GI50 [20]: > 448 µM (inactive)
- GI50 [21]: 161 µM (inactive)
- GI50 [22]: 230 µM (inactive)
- GI50 [23]: 236 µM (inactive)
- GI50 [24]: 243 µM (inactive)
- GI50 [25]: 230 µM (inactive)
- GI50 [26]: 442 µM (inactive)
- GI50 [27]: > 448 µM (inactive)
- GI50 [28]: 182 µM (inactive)
- GI50 [29]: > 448 µM (inactive)
- GI50 [30]: 109 µM (inactive)
- GI50 [31]: 92.5 µM (inactive)
- GI50 [32]: > 448 µM (inactive)
- GI50 [33]: 300 µM (inactive)
- GI50 [34]: 170 µM (inactive)
- GI50 [35]: 256 µM (inactive)
- GI50 [36]: 281 µM (inactive)
- GI50 [37]: 210 µM (inactive)
- GI50 [38]: 313 µM (inactive)
- GI50 [39]: > 448 µM (inactive)
- GI50 [40]: 382 µM (inactive)
- GI50 [41]: 279 µM (inactive)
- GI50 [42]: 148 µM (inactive)
- GI50 [43]: > 448 µM (inactive)
- GI50 [44]: 356 µM (inactive)
- GI50 [45]: > 448 µM (inactive)
- GI50 [46]: 159 µM (inactive)
- GI50 [47]: 414 µM (inactive)
- GI50 [48]: > 448 µM (inactive)
- GI50 [49]: 434 µM (inactive)
- GI50 [50]: 199 µM (inactive)
- GI50 [51]: 201 µM (inactive)

SMILES: CC(=O)NC(CCCN(Cc1ccccc1)C(=O)N(CCCl)N=O)C(=O)NCc1ccccc1 (stereo not drawn)
- GI50 [1]: 2.24 µM (inactive)
- GI50 [52]: 32.7 µM (inactive)
- GI50 [2]: 16.1 µM (inactive)
- GI50 [3]: 10.8 µM (inactive)
- GI50 [4]: 7.5 µM (inactive)
- GI50 [5]: 23 µM (inactive)
- GI50 [6]: > 64.7 µM (inactive)
- GI50 [7]: 62.7 µM (inactive)
- GI50 [53]: > 100 µM (inactive)
- GI50 [8]: 41 µM (inactive)
- GI50 [9]: > 72.9 µM (inactive)
- GI50 [10]: 64.6 µM (inactive)
- GI50 [11]: 37.8 µM (inactive)
- GI50 [12]: > 81.8 µM
- GI50 [13]: 8.71 µM (inactive)
- GI50 [14]: > 100 µM (inactive)
- GI50 [15]: 7.24 µM (inactive)
- GI50 [16]: 36 µM (inactive)
- GI50 [17]: > 57.5 µM (inactive)
- GI50 [18]: 44.4 µM (inactive)
- GI50 [19]: 68.4 µM (inactive)
- GI50 [20]: 59.6 µM (inactive)
- GI50 [21]: 60.5 µM (inactive)
- GI50 [22]: 2.92 µM (inactive)
- GI50 [23]: > 100 µM (inactive)
- GI50 [54]: 42.7 µM (inactive)
- GI50 [25]: 9.4 µM (inactive)
- GI50 [26]: > 53.1 µM (inactive)
- GI50 [27]: 44.9 µM (inactive)
- GI50 [28]: 27 µM (inactive)
- GI50 [29]: 3.32 µM (inactive)
- GI50 [30]: 57.1 µM (inactive)
- GI50 [31]: 98.6 µM (inactive)
- GI50 [55]: > 95.3 µM (inactive)
- GI50 [32]: 35.2 µM (inactive)
- GI50 [33]: > 71.1 µM (inactive)
- GI50 [34]: > 70 µM (inactive)
- GI50 [35]: 21.8 µM (inactive)
- GI50 [37]: 3.89 µM (inactive)
- GI50 [38]: 6.19 µM (inactive)
- GI50 [39]: 2.54 µM (inactive)
- GI50 [40]: 78.3 µM (inactive)
- GI50 [41]: > 66.5 µM (inactive)
- GI50 [42]: 27.5 µM (inactive)
- GI50 [43]: 55.6 µM (inactive)
- GI50 [44]: 46.3 µM (inactive)
- GI50 [45]: 17.8 µM (inactive)
- GI50 [56]: 9.02 µM (inactive)
- GI50 [57]: 54.1 µM (inactive)
- GI50 [46]: 3.69 µM (inactive)
- GI50 [47]: 16.2 µM (inactive)
- GI50 [48]: > 85.5 µM (inactive)
- GI50 [49]: 10.9 µM (inactive)
- GI50 [50]: 50 µM (inactive)
- GI50 [51]: 2.24 µM (inactive)
- GI50 [58]: 43.4 µM (inactive)
- GI50 [59]: > 37.8 µM (inactive)
